Results published in paper PMC12264554, “Application of preclinical absorption, distribution, metabolism, elimination in vitro techniques for the characterization and compound library optimization of novel antibiotic gallium salophen” (Drug Metabolism and Disposition, 2025).
Like-named read-outs stand apart in the source and are kept apart here.

Key:
[1] = Caco-2 permeability screening; format: in vitro ADME; settings: for Papp A→B / Papp B→A / efflux ratio at 20 µM: Caco-2, 20 μM; for Papp A→B / Papp B→A: 30 and 60 min, average ± SEM; for Papp A→B: read-out: Papp apical to basolateral; for Papp B→A: read-out: Papp basolateral to apical; for Papp: Caco-2, ranked by Papp against control drugs, read-out: Permeability ranking; for efflux ratio at 20 µM: read-out: Efflux ratio B to A/A to B
Procedure: Caco-2 cells were received from American Type Culture Collection and certified mycoplasma free. Cells were seeded on transwell plates (CoStar, growth area 0.33 cm^2/well, polycarbonate membrane, 0.33 μm pore size) between passage 20 and 27 and then analyzed between 21 and 25 days after wells were seeded to ensure enterocyte-like differentiation. Before assessing permeability, cells were washed once with Hank’s Balanced Salt Solution buffer, pH 7.4, and then incubated at 37 °C for 30 minutes. Transepithelial electrical resistance (TEER) was measured after equilibration before the experiment using an epithelial volt-ohmmeter (EVOM, World Precision Instruments), and cells were used if TEER > 250 Ω × cm^2. Cells were dosed to measure permeability from basolateral and apical sides at a concentration of 20 μM of test compound and 50 μM of Lucifer yellow. Lucifer yellow was used as a “zero permeability” marker to monitor the integrity of cell barrier. Samples were taken at 0 and 60 minutes from the donor side, and samples were taken at 30 and 60 minutes from the receiver side; media was replenished after the 30-minute sample was taken from both chambers. A calibration curve was prepared by serial dilution using the dosing solution in a 1:5 dilution. […] Samples were prepared for LC-MS/MS analysis by taking 100 μL of sample, adding 1 μM internal standard (GaSal-4 or GaSal-5), and crashing with 400 μL of methanol. Samples were centrifuged at 3000 rpm at 4 °C for 30 minutes, 200 μL of supernatant was transferred to a new plate, and 100 μL of water was added to each sample. Samples were vortexed and analyzed by LC-MS/MS as described earlier. […] To preliminarily evaluate organic cation transporter 1 (OCT1) or P-glycoprotein (P-gp)-dependent transport, transport studies were conducted with and without a 1 μM “inhibitor cocktail” alongside GaSal. […] The Papp for basolateral to apical, Papp apical to basolateral, and efflux ratio were reported for each compound. In order to calculate Papp, the concentration in the sampled time point was determined from the calibration curve and then converted to μg based on the volume of the chamber (0.2 mL for apical, 1.0 mL for basolateral). […] The calculation of Papp was determined using eq. […] Data are presented as the average ± SEM for each compound analyzed as n = 3 on 2 different days with 2 different cell line passages, for n = 6 total. GaSal is n = 3 on 3 different cell line passages since this was used as a test compound for the inhibition cocktail experiments.

[2] = Experimental LogP by reverse-phase HPLC method; format: physicochemical; settings: extrapolated log kw
From the text: LogP was experimentally determined using previously published reverse-phase high-performance liquid chromatography method, and this workflow was adapted using instrumentation described in the previous LC-MS/MS analysis section ([Coutinho et al, 2023]). Briefly, analogs were eluted using isocratic flow with an increasing percentage of organic solvent from 55% to 90% in increments of 5%. The change in the log of the retention factor, log k, was plotted against the fraction of organic solvent. This allowed for extrapolation to the y-intercept, which is when the fraction of organic in the system is zero, or log kw. The same workflow was applied to known compounds with a published logP value to establish a relationship between logP and log kw. This ratio was used to calculate the experimental logP from the log kw of the test compounds. The in silico prediction of logP values was obtained using an online calculator by Molinspiration Cheminformatics (molinspiration.com).

HasA = HasA (Pseudomonas aeruginosa, UniProt G3XD33); experiment: Kd determination by fluorescence quenching of apo-HasAp; settings: read-out: HasA Kd; apo-HasAp 1 μM, 20 mM sodium phosphate pH 7.4, 25 °C, one-site binding fit
Procedure: Wild-type, full-length HasAp was prepared from freshly transformed Escherichia coli BL21(DE3) competent cells as previously described in 4 L of M9 media. Cell pellets were resuspended and lysed with an LM-20 microfluidizer at 18,000 psi. Lysate was clarified by centrifugation and applied to a Q-Sepharose column. HasAp was eluted over a gradient from 20 to 600 mM NaCl in 20 mM Tris-HCl (pH 7.5), and desired fractions determined by SDS-PAGE were pooled. Apo-HasAp was further purified on a Butyl Sepharose Fast Flow column equilibrated with 50 mM sodium phosphate buffer with 0.7 M ammonium sulfate (pH 7.0). Holo-HasAp and other proteins eluted within 2–3 bed volumes of 50 mM sodium phosphate containing 0.5 M ammonium sulfate. Apo-HasAp was then eluted with a linear gradient of sodium phosphate buffer (50–20 mM) containing ammonium sulfate (0.5–0 M). Fractions were analyzed again by SDS-PAGE, and the apo-HasAp was pooled, concentrated (Amicon stirred cell with Ultracel 10 kDa filter), and exchanged into 20 mM sodium phosphate buffer.
Binding affinities were determined using a BioTek Synergy H1 microplate reader in a black 96-well plate. Compounds were solvated in H2O in serial dilutions (100–0.39 μM). One micromolar solution of apo-HasAp 20 mM sodium phosphate buffer (pH 7.4, 25 °C) was titrated into the ligand of interest. Emission spectra were recorded (300–500 nm) after excitation at 280 nm. The decrease in maximum emission was plotted against the ligand concentration (accounting for dilution) and fit to one-site binding using GraphPad Prism v10.

[3] = RBC/PL partitioning equilibrium in whole blood; settings: for K2EDTA KRBC/PL: pooled K2EDTA whole blood; for K2EDTA KRBC/PL / Heparin KRBC/PL: LC-MS/MS (ICP-MS for Ga^3+); for Heparin KRBC/PL: pooled sodium heparin whole blood
Procedure: The mixtures were digested at 80 °C for 4 hours and further diluted to a concentration of 6% nitric acid. Gallium (Ga^71) in whole blood, PL, and RBC samples were quantified using an Agilent 7700x ICP-MS instrument (Agilent Technologies). Metal levels were detected using an Octopole Reaction System in He mode. Other ICP-MS parameters include an radio frequency power of 1500 W, on octupole radio frequency of 190 V, an octapole bias of –18 V, a helium gas flow of 4.3 mL/min, and an argon flow of 0.99 L/min. Samples were loaded through a 7700X peristaltic (with a speed of 0.1 rps) and a MicroMist nebulizer. A standard calibration curve was used to derive metal concentrations. The calibration standards from 0–250 ppb were prepared in 6% nitric acid using atomic absorption standards (Sigma). Data analysis and extraction were performed using Agilent’s MassHunter software version 5.1, specifically version D.01.01.
All LC-MS/MS grade solvents were purchased from ThermoFisher. Ammonium bicarbonate was purchased from Sigma Aldrich. Analysis was performed on a Waters I-Class ultra-performance liquid chromatography system connected with a Waters Xevo TQ-XS mass spectrometer. Ten millimolar ammonium bicarbonate, pH 9.4 was used for mobile phase A, and 100% methanol was used for mobile phase B. The column flow rate was set at 0.400 mL/min. Chromatographic separation was performed with a BEH C18 (2.1 × 50 mm, 1.7 μm) column (Waters). […] The total run time was 4 minutes. The column temperature was set to 60 °C, and the autosampler temperature was set to 15 °C. Washing parameters were 800 μL of weak needle wash (acetonitrile [ACN]:Water/50:50) and 1000 μL of strong needle wash (methanol:ACN:2-propanol:formic acid/30:30:40:0.5) after every injection. Transitions used to monitor all drugs in the study are shown in Supplemental Table 1.
Whole blood (either potassium EDTA [K2EDTA] or sodium heparin) was preincubated at 37 °C for 30 minutes before spiking with the analyte. GaSal-5 was made at a stock concentration of 100 μg/mL in water and then spiked at a high concentration (1 μg/mL) and low concentration (100 ng/mL) to determine whether equilibrium was concentration dependent. Samples were then aliquoted and stored in a water bath at 37 °C for 1, 2, 3, 4, and 8 hours or harvested immediately. PL was harvested from samples by centrifuging at 3000 rpm at 4 °C for 10 minutes. PL was transferred to a new tube and considered the PL fraction, whereas the rest of the matrix was considered the RBC fraction. Samples were then either analyzed by LC-MS/MS or ICP-MS. […] For selectivity lot analysis, whole blood from 3 male and 3 female donors were incubated for 2 hours and then analyzed with LC-MS/MS and ICP-MS at a single concentration of 1 μg/mL. Data are presented as average ± SEM, n = 3 per sample, per concentration. Significance was determined by using a paired t test for ICP-MS and LC-MS/MS data (the same sample, different method) or a 2-tailed Student’s t test for different anticoagulants.

[4] = calculated B/P, cited from earlier work

HasA, sequence (G3XD33 entry or part of it): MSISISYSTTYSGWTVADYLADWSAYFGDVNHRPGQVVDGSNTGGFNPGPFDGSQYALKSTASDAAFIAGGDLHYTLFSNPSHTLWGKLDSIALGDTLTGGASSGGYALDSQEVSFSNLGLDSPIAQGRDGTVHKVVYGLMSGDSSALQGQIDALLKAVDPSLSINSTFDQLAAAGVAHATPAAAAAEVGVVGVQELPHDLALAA

Structure (SMILES) | Papp A→B [1] [×10⁻⁶ cm/s] | Papp B→A [1] [×10⁻⁶ cm/s] | Papp [1] [×10⁻⁶ cm/s] | logP [2] | Kd (HasA) [nM] | K2EDTA KRBC/PL ([3]; 0.1 μg/mL, 2 hours) | K2EDTA KRBC/PL ([3]; 1 μg/mL, 2 hours) | further results
CC(=Nc1ccccc1N=Cc1ccc(OCCC(=O)O)cc1O)c1ccccc1O.[Ga+3] [GaSal-9] | < 0.01 | 22.5 ± 5.63 | < 1.12 | 3.03 | 330 ± 40 | 820 ± 59 | 13745 ± 3800 | efflux ratio at 20 µM ([1]; human): > 22.5
[Cr] [Chromium] | – | – | – | – | – | – | – | KRBC/PL (B/P ratio) ([4]; ref (Bonde & Christensen, 1991)): 1-3
COCCOCCOc1ccc(/C=N/c2ccccc2N=C(C)c2ccccc2O)c(O)c1.[Ga+3] [GaSal-10] | – | – | – | – | 3400 ± 300 | – | – | –
CN(C)C(=O)C(CCN1CCC(O)(c2ccc(Cl)cc2)CC1)(c1ccccc1)c1ccccc1 [Loperamide, reference compound] | – | – | – | – | – | – | – | efflux ratio at 60 min, 20 μM ([1]; human, Caco-2, pH 7.4, known drug standards, read-out: Efflux Ratio B to A/ A to B): 4.22; Papp A→B at 60 min, 20 μM ([1]; human, Caco-2, pH 7.4, known drug standards, read-out: Papp Apical to Basolateral): 3.51 ± 0.04 ×10⁻⁶ cm/s; Papp B→A at 60 min, 20 μM ([1]; human, Caco-2, pH 7.4, known drug standards, read-out: Papp Basolateral to Apical): 14.8 ± 2.12 ×10⁻⁶ cm/s; Papp at 60 min, 20 μM ([1]; human, Caco-2, pH 7.4, known drug standards, read-out: Permeability Ranking): 3.51 to 5.33 ×10⁻⁶ cm/s
O=[N+]([O-])[O-].O=[N+]([O-])[O-].O=[N+]([O-])[O-].[Ga+3] [Ga^3+, gallium nitrate, reference compound] | – | – | – | – | – | – | – | hemolysis [3]: > 5%; ICP-MS calculated KRBC/PL ([3]; 1 μg/mL, sodium heparin whole blood, 6 selectivity lots, 2 hours): 0.08 ± 0.01
OCCCOc1ccc(/C=N/c2ccccc2/N=C/c2ccc(OCCCO)cc2O)c(O)c1.[Ga+3] [GaSal-11] | < 0.01 | 0.72 ± 0.12 | < 1.12 | 4.04 | 570 ± 30 | 0.05 ± 0.03 | 0.05 ± 0.02 | Heparin KRBC/PL ([3]; 0.1 μg/mL, 2 hours): 0.91 ± 0.19; Heparin KRBC/PL ([3]; 1 μg/mL, 2 hours): 1.15 ± 0.19
[Cd] [Cadmium] | – | – | – | – | – | – | – | KRBC/PL (B/P ratio) ([4]; ref (Cao et al., 2023)): 4.28
[Se] [Selenium] | – | – | – | – | – | – | – | KRBC/PL (B/P ratio) ([4]; ref (Cao et al., 2023)): 1.34
CCCCOc1ccc(/C=N/c2ccccc2/N=C/c2ccc(OCCCC)cc2O)c(O)c1.[Ga+3] [GaSal-15] | 0.79 ± 0.06 | 7.1 ± 1.13 | < 1.12 | 5.99 | 1980 ± 170 | 5.40 ± 0.13 | 3.81 ± 0.97 | efflux ratio at 20 µM ([1]; human): 9.02; Heparin KRBC/PL ([3]; 0.1 μg/mL, 2 hours): 0.83 ± 0.01; Heparin KRBC/PL ([3]; 1 μg/mL, 2 hours): 1.24 ± 0.03
[Pb] [Lead] | – | – | – | – | – | – | – | KRBC/PL (B/P ratio) ([4]; ref (Cao et al., 2023)): 1.13
C[N+](C)(C)CCOc1ccc(/C=N/c2ccccc2/N=C/c2ccc(OCC[N+](C)(C)C)cc2O)c(O)c1.[Ga+3] [GaSal-1] | – | – | – | – | 2500 ± 1200 | – | – | –
CC(=Nc1ccccc1N=Cc1ccc(OCCN2CCOCC2)cc1O)c1ccccc1O.[Ga+3] [GaSal-8] | < 0.01 | 5.75 ± 0.37 | < 1.12 | 4.11 | 5200 ± 400 | 0.12 ± 0.09 | 0.10 ± 0.05 | efflux ratio at 20 µM ([1]; human): > 5.75; Heparin KRBC/PL ([3]; 0.1 μg/mL, 2 hours): 33.8 ± 5.7; Heparin KRBC/PL ([3]; 1 μg/mL, 2 hours): 37.4 ± 2.6
CC(=Nc1ccccc1/N=C/c1ccc(OCCCO)cc1O)c1ccccc1O.[Ga+3] [GaSal-12] | 0.05 ± 0.01 | 0.17 ± 0.06 | < 1.12 | 3.19 | 520 ± 10 | 0.11 ± 0.06 | 0.13 ± 0.04 | efflux ratio at 20 µM ([1]; human): 3.4; Heparin KRBC/PL ([3]; 0.1 μg/mL, 2 hours): 0.86 ± 0.31; Heparin KRBC/PL ([3]; 1 μg/mL, 2 hours): 1.48 ± 0.10
C/C(=N\c1ccccc1/N=C/c1ccc(OCC[N+](C)(C)C)cc1O)c1ccccc1O.[Ga+3] [GaSal-6] | – | – | – | – | 4000 ± 2800 | – | – | –
